Source: patent publication US20040122058A1, “Use of specific compounds particularly kinase inhibitors for treating viral infections” (priority 2001, published 2004)

Key:
[1] = test system: Ebola (EBO) virus infected peripheral blood mononuclear cells (PBMC); assay type: cell-based, human
[2] = test system: bacterial LPS-induced TNF-α release; assay type: cell-based, human
[3] = test system: Marburg (MBG) virus infected peripheral blood mononuclear cells (PBMC); assay type: cell-based, human
[4] = test system: Ebola virus induced TNF-α release in primary human macrophages; assay type: cell-based
[5] = test system: Marburg virus induced TNF-α release in primary human macrophages; assay type: cell-based
[6] = test system: IL-1 beta release of Ebola virus infected VeroE6 cells
[7] = test system: IL-1 beta release of Marburg virus infected VeroE6 cells

Structure (SMILES)	TNF-α release [1]	bacterial LPS-induced TNF-α production [2]	bacterial LPS-induced TNF-α release [2]	TNF-α release [3]	Ebola virus induced TNFα production [4]	virally induced TNF-α release [4]	Marburg virus induced TNFα production [5]	virally induced TNF-α release [5]	release of IL-1 beta to the supernatant [6]	release of IL-1 beta to the supernatant [7]	replication of Marburg virus (plaques) (Marburg virus)	replication of Ebola virus (plaques) (Ebola virus)	Ebola virus induced TNF-α release/production [4]	Marburg virus induced TNF-α release/production [5]
COc1cccc(-c2cc(=O)c3ccccc3o2)c1N [Compound 1, 2′-amino-3′-methoxyflavone]	dose-dependent inhibitory effect	no inhibitory effect at all	did not reduce	dose-dependent inhibitory effect	inhibited very strongly and dose-dependently	inhibitory effects	inhibited very strongly and dose-dependently	inhibitory effects	–	–	–	–	–	–
O=C(NOCC1CC1)c1ccc(F)c(F)c1Nc1ccc(I)cc1Cl [Compound 2, 2-(2-chloro-4-iodophenylamino)-N-cyclopropylmethoxy-3,4-difluorobenzamide]	inhibitory effect	no inhibitory effect at all	did not reduce	inhibitory effect	inhibited very strongly and dose-dependently	inhibitory effects	inhibited very strongly and dose-dependently	inhibitory effects	–	–	–	–	–	–
N#CC(=C(N)Sc1ccccc1N)C(C#N)=C(N)Sc1ccccc1N [Compound 3, 1,4-diamino-2,3-dicyano-1,4-bis(2-aminophenylthio)butadiene]	dose-dependent inhibitory effect	no inhibitory effect at all	did not reduce	dose-dependent inhibitory effect	inhibited very strongly and dose-dependently	inhibitory effects	inhibited very strongly and dose-dependently	inhibitory effects	dramatically reduces	dramatically reduces	does not have an obvious effect	does not have an obvious effect	–	–
Oc1ccc(-c2nc(-c3ccc(F)cc3)c(-c3ccncc3)[nH]2)cc1 [Compound 4]	–	no inhibitory effect at all	–	–	–	–	–	–	–	–	–	–	did not significantly inhibit	did not significantly inhibit
